In patent publication US20220281848A1, “PYRAZOLE-SUBSTITUTED PYRROLIDINONES AS HERBICIDES” (FMC Corporation, priority 2019, published 2022):

Key:
Type in all cases: in vivo
Conditions in all cases: after 13 d
corn (Zea mays, ZEAMX) [1] = experiment: Test A pre-emergence, corn
Outline: (§1)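 Seeds sown in pots of standard soil and sprayed one day later, pre-emergence, at 15.625, 62.5 or 250 g/ha in acetone/water (50:50) with 0.5% Tween 20. Grown in glasshouse at 24/16 °C, 14 h light, 65% humidity. Damage scored after 13 d (0 none, 100 total).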

[2] = test system: giant foxtail (Setaria faberi, SETFA); experiment: Test A pre-emergence, giant foxtail
Outline: as §1

[3] = test system: barnyardgrass (Echinochloa crus-galli, ECHCG); experiment: Test A pre-emergence, barnyardgrass
Outline: as §1

[4] = test system: ivy-leaved morning glory (Ipomoea hederacea, IPOHE); experiment: Test A pre-emergence, ivy-leaved morning glory
Outline: as §1

[5] = test system: redroot pigweed (Amaranthus retroflexus, AMARE); experiment: Test A pre-emergence, redroot pigweed
Outline: as §1

[6] = test system: velvetleaf (Abutilon theophrasti, ABUTH); experiment: Test A pre-emergence, velvetleaf
Outline: as §1

corn (Zea mays, ZEAMX) [7] = experiment: Test A post-emergence, corn
Outline: (§2)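 Visual damage at 13 d after treatment, rated from 0 (no damage) to 100 (total damage). Eight-day-old pot-grown plants had been sprayed with 15.625, 62.5 or 250 g/ha of compound in aqueous acetone (50:50) containing 0.5% Tween 20.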

[8] = test system: giant foxtail (Setaria faberi, SETFA); experiment: Test A post-emergence, giant foxtail
Outline: as §2

[9] = test system: barnyardgrass (Echinochloa crus-galli, ECHCG); experiment: Test A post-emergence, barnyardgrass
Outline: as §2

[10] = test system: ivy-leaved morning glory (Ipomoea hederacea, IPOHE); experiment: Test A post-emergence, ivy-leaved morning glory
Outline: as §2

[11] = test system: redroot pigweed (Amaranthus retroflexus, AMARE); experiment: Test A post-emergence, redroot pigweed
Outline: as §2

[12] = test system: velvetleaf (Abutilon theophrasti, ABUTH); experiment: Test A post-emergence, velvetleaf
Outline: as §2

Compound | damage to plant (100=total damage; 0=no damage) ZEAMX (corn (Zea mays, ZEAMX) [1]; Pre-Emergence at 62.5 g/ha) | damage to plant (100=total damage; 0=no damage) ZEAMX (corn (Zea mays, ZEAMX) [1]; Pre-Emergence at 250 g/ha) | damage to plant (100=total damage; 0=no damage) SETFA ([2]; Pre-Emergence at 62.5 g/ha) | damage to plant (100=total damage; 0=no damage) SETFA ([2]; Pre-Emergence at 250 g/ha) | damage to plant (100=total damage; 0=no damage) ECHCG ([3]; Pre-Emergence at 62.5 g/ha) | damage to plant (100=total damage; 0=no damage) ECHCG ([3]; Pre-Emergence at 250 g/ha) | damage to plant (100=total damage; 0=no damage) IPOHE ([4]; Pre-Emergence at 62.5 g/ha) | damage to plant (100=total damage; 0=no damage) IPOHE ([4]; Pre-Emergence at 250 g/ha) | damage to plant (100=total damage; 0=no damage) AMARE ([5]; Pre-Emergence at 62.5 g/ha) | damage to plant (100=total damage; 0=no damage) AMARE ([5]; Pre-Emergence at 250 g/ha) | damage to plant (100=total damage; 0=no damage) ABUTH ([6]; Pre-Emergence at 62.5 g/ha) | damage to plant (100=total damage; 0=no damage) ABUTH ([6]; Pre-Emergence at 250 g/ha) | damage to plant (100=total damage; 0=no damage) ZEAMX (corn (Zea mays, ZEAMX) [7]; Post-Emergence at 15.625 g/ha) | damage to plant (100=total damage; 0=no damage) ZEAMX (corn (Zea mays, ZEAMX) [7]; Post-Emergence at 62.5 g/ha) | damage to plant (100=total damage; 0=no damage) ZEAMX (corn (Zea mays, ZEAMX) [7]; Post-Emergence at 250 g/ha) | damage to plant (100=total damage; 0=no damage) SETFA ([8]; Post-Emergence at 15.625 g/ha) | damage to plant (100=total damage; 0=no damage) SETFA ([8]; Post-Emergence at 62.5 g/ha) | damage to plant (100=total damage; 0=no damage) SETFA ([8]; Post-Emergence at 250 g/ha) | damage to plant (100=total damage; 0=no damage) ECHCG ([9]; Post-Emergence at 15.625 g/ha) | damage to plant (100=total damage; 0=no damage) ECHCG ([9]; Post-Emergence at 62.5 g/ha) | other results
CN1CC(c2cc(C(F)(F)F)n(C)n2)C(C(=O)Nc2cccc(F)c2OC(F)(F)F)C1=O (racemic) [Compound 16] | 0 | 30 | 80 | 90 | 80 | 90 | 0 | 50 | 0 | 0 | 0 | 0 | 0 | 0 | 0 | 0 | 60 | 70 | 0 | 50 | damage to plant (100=total damage; 0=no damage) ZEAMX (corn (Zea mays, ZEAMX) [1]; Pre-Emergence at 15.625 g/ha): 0; damage to plant (100=total damage; 0=no damage) SETFA ([2]; Pre-Emergence at 15.625 g/ha): 0; damage to plant (100=total damage; 0=no damage) ECHCG ([3]; Pre-Emergence at 15.625 g/ha): 0; damage to plant (100=total damage; 0=no damage) IPOHE ([4]; Pre-Emergence at 15.625 g/ha): 0; damage to plant (100=total damage; 0=no damage) AMARE ([5]; Pre-Emergence at 15.625 g/ha): 0; damage to plant (100=total damage; 0=no damage) ABUTH ([6]; Pre-Emergence at 15.625 g/ha): 0; damage to plant (100=total damage; 0=no damage) ECHCG ([9]; Post-Emergence at 250 g/ha): 70; damage to plant (100=total damage; 0=no damage) IPOHE ([10]; Post-Emergence at 15.625 g/ha): 0; damage to plant (100=total damage; 0=no damage) IPOHE ([10]; Post-Emergence at 62.5 g/ha): 0; damage to plant (100=total damage; 0=no damage) IPOHE ([10]; Post-Emergence at 250 g/ha): 0; damage to plant (100=total damage; 0=no damage) AMARE ([11]; Post-Emergence at 15.625 g/ha): 0; damage to plant (100=total damage; 0=no damage) AMARE ([11]; Post-Emergence at 62.5 g/ha): 0; damage to plant (100=total damage; 0=no damage) AMARE ([11]; Post-Emergence at 250 g/ha): 0; damage to plant (100=total damage; 0=no damage) ABUTH ([12]; Post-Emergence at 15.625 g/ha): 0; damage to plant (100=total damage; 0=no damage) ABUTH ([12]; Post-Emergence at 62.5 g/ha): 0; damage to plant (100=total damage; 0=no damage) ABUTH ([12]; Post-Emergence at 250 g/ha): 0
CN1CC(c2cc(Cl)n(C)n2)C(C(=O)Nc2ccc(F)cc2F)C1=O (racemic) [Compound 29] | 10 | 10 | 30 | 80 | 70 | 80 | 0 | 0 | 0 | 0 | 0 | 0 | 0 | 0 | 0 | 10 | 20 | 60 | 20 | 50 | damage to plant (100=total damage; 0=no damage) ZEAMX (corn (Zea mays, ZEAMX) [1]; Pre-Emergence at 15.625 g/ha): 0; damage to plant (100=total damage; 0=no damage) SETFA ([2]; Pre-Emergence at 15.625 g/ha): 20; damage to plant (100=total damage; 0=no damage) ECHCG ([3]; Pre-Emergence at 15.625 g/ha): 30; damage to plant (100=total damage; 0=no damage) IPOHE ([4]; Pre-Emergence at 15.625 g/ha): 0; damage to plant (100=total damage; 0=no damage) AMARE ([5]; Pre-Emergence at 15.625 g/ha): 0; damage to plant (100=total damage; 0=no damage) ABUTH ([6]; Pre-Emergence at 15.625 g/ha): 0; damage to plant (100=total damage; 0=no damage) ECHCG ([9]; Post-Emergence at 250 g/ha): 60; damage to plant (100=total damage; 0=no damage) IPOHE ([10]; Post-Emergence at 15.625 g/ha): 0; damage to plant (100=total damage; 0=no damage) IPOHE ([10]; Post-Emergence at 62.5 g/ha): 0; damage to plant (100=total damage; 0=no damage) IPOHE ([10]; Post-Emergence at 250 g/ha): 10; damage to plant (100=total damage; 0=no damage) AMARE ([11]; Post-Emergence at 15.625 g/ha): 10; damage to plant (100=total damage; 0=no damage) AMARE ([11]; Post-Emergence at 62.5 g/ha): 30; damage to plant (100=total damage; 0=no damage) AMARE ([11]; Post-Emergence at 250 g/ha): 40; damage to plant (100=total damage; 0=no damage) ABUTH ([12]; Post-Emergence at 15.625 g/ha): 0; damage to plant (100=total damage; 0=no damage) ABUTH ([12]; Post-Emergence at 62.5 g/ha): 0; damage to plant (100=total damage; 0=no damage) ABUTH ([12]; Post-Emergence at 250 g/ha): 0
CCn1nc(C2CN(C)C(=O)C2C(=O)Nc2cccc(F)c2F)c2cccc(F)c21 (stereo not drawn) [Compound 15] | 0 | 0 | 0 | 0 | 0 | 0 | 0 | 0 | 0 | 0 | 0 | 0 | 0 | 0 | 0 | 0 | 0 | 0 | 0 | 0 | damage to plant (100=total damage; 0=no damage) ECHCG ([9]; Post-Emergence at 250 g/ha): 0; damage to plant (100=total damage; 0=no damage) IPOHE ([10]; Post-Emergence at 15.625 g/ha): 0; damage to plant (100=total damage; 0=no damage) IPOHE ([10]; Post-Emergence at 62.5 g/ha): 0; damage to plant (100=total damage; 0=no damage) IPOHE ([10]; Post-Emergence at 250 g/ha): 0; damage to plant (100=total damage; 0=no damage) AMARE ([11]; Post-Emergence at 15.625 g/ha): 0; damage to plant (100=total damage; 0=no damage) AMARE ([11]; Post-Emergence at 62.5 g/ha): 0; damage to plant (100=total damage; 0=no damage) AMARE ([11]; Post-Emergence at 250 g/ha): 0; damage to plant (100=total damage; 0=no damage) ABUTH ([12]; Post-Emergence at 15.625 g/ha): 0; damage to plant (100=total damage; 0=no damage) ABUTH ([12]; Post-Emergence at 62.5 g/ha): 0; damage to plant (100=total damage; 0=no damage) ABUTH ([12]; Post-Emergence at 250 g/ha): 0
